The source of these data is ChEMBL document CHEMBL1268945, “Sequential cytotoxicity: a theory examined using a series of 3,5-bis(benzylidene)-1-diethylphosphono-4-oxopiperidines and related phosphonic acids” (Bioorg Med Chem Lett, 2010).

Activity calls are given as the source filed them. No cut-off for these calls is given here.

Data set [1] deals with HSC-2. Nature of the data set: Cytotoxicity against human HSC2 cells. The data set is classed as functional.
Data set [2] is described as follows: Cytotoxicity against human HPC cells. The data set is classed as cell-based.
Data set [3] deals with HSC-3. Nature of the data set: Selectivity index, ratio of CC50 for normal cells to CC50 for human HSC3 cells. The data set is classed as functional.
Data set [4] relates to HSC-4. Nature of the data set: Selectivity index, ratio of CC50 for normal cells to CC50 for human HSC4 cells. It is filed as functional.
The test system of data set [5] is HSC-4. Nature of the data set: Cytotoxicity against human HSC4 cells. It is filed as functional.
The nature of data set [6]: Cytotoxicity against human HPLF cells. It is filed as cell-based.
The subject of data set [7] is HSC-2. Nature of the data set: Selectivity index, ratio of CC50 for normal cells to CC50 for human HSC2 cells. It is filed as functional.
Data set [8] concerns HL-60. The experiment in a line: Selectivity index, ratio of CC50 for normal cells to CC50 for human HL60 cells. It is filed as functional.
A short description of data set [9]: Cytotoxicity against human HGF cells. The data set is classed as cell-based.
The test system of data set [10] is HL-60. Nature of the data set: Cytotoxicity against human HL60 cells. The data set is classed as functional.
The test system of data set [11] is HSC-3. Nature of the data set: Cytotoxicity against human HSC3 cells. The data set is classed as functional.
Data set [12] concerns HL-60. Nature of the data set: Induction of apoptosis in human HL60 cells assessed as activation of caspase 3 after 6 hrs. The data set is classed as functional, cell-based.
Data set [13] relates to HSC-2. The experiment in a line: Induction of internucleosomal DNA fragmentation in human HSC2 cells after 6 hrs. The data set is classed as functional, cell-based.
In data set [14] the test system is HL-60. The experiment in a line: Induction of internucleosomal DNA fragmentation in human HL60 cells after 6 hrs. The data set is classed as functional, cell-based.
Data set [15] relates to HSC-2. Nature of the data set: Induction of apoptosis in human HSC2 cells assessed as activation of caspase 3 after 6 hrs. The data set is classed as functional, cell-based.
In data set [16] the test system is HSC-4. Nature of the data set: Induction of internucleosomal DNA fragmentation in human HSC4 cells after 6 hrs. The data set is classed as functional, cell-based.

For the compound `Cc1ccc(/C=C2\CN(P(=O)(O)O)C/C(=C\c3ccc(C)cc3)C2=O)cc1`, the CC50 (commonly the concentration that lowers cell viability or growth by half) with HSC-2 [1] was found to be 760 nM; in data set [2] it was 3.3 µM; in the data set with HSC-4 [5], 960 nM; in data set [6], 6.1 µM; in [9], 5.9 µM; with HL-60 [10] it was 1100 nM. The CC50 in the data set with HSC-3 [11] amounted to 950 nM. Also, the “Selectivity Index” value was determined as 5.4 in the data set on HSC-3 [3], 5.3 in the data set on HSC-4 [4], 6.7 in the data set with HSC-2 [7] and 4.6 with HL-60 [8].

Consider `CCOP(=O)(OCC)N1C/C(=C\c2ccccc2[N+](=O)[O-])C(=O)/C(=C/c2ccccc2[N+](=O)[O-])C1`, for which the CC50 in the data set on HSC-2 [1] is 1600 nM; in data set [2] it was 8.3 µM; in the data set on HSC-4 [5], 1800 nM; in [6] it was 15 µM; in [9] it was 18 µM; in the data set with HL-60 [10] it was 380 nM. In the data set with HSC-3 [11], the midpoint of cytotoxicity, the CC50, lay at 1200 nM. For the same compound, the “Selectivity Index” value is 12 in the data set with HSC-3 [3], 7.8 in the data set on HSC-4 [4], 8.8 with HSC-2 [7] and 37 with HL-60 [8].

In the case of `O=C1/C(=C/c2ccccc2)CN(P(=O)(O)O)C/C1=C\c1ccccc1`, the CC50 with HSC-2 [1] was determined as 770 nM; in data set [2], 3.2 µM; in the data set with HSC-4 [5], 570 nM; in data set [6], 7 µM; in data set [9], 6.9 µM; in the data set on HL-60 [10], 460 nM. In addition, in the data set on HSC-3 [11], the half-maximal cytotoxic concentration (CC50) is 980 nM. The “Selectivity Index” value with HSC-3 [3] amounted to 5.8; with HSC-4 [4] it was 10; in the data set on HSC-2 [7] it was 7.4; with HL-60 [8], 12.

Take `CCOP(=O)(OCC)N1C/C(=C\c2ccc(OC)cc2)C(=O)/C(=C/c2ccc(OC)cc2)C1`: the CC50 was determined as 920 nM in the data set with HSC-2 [1]; 41 µM in [2]; 1300 nM in the data set with HSC-4 [5]; 46 µM in data set [6]; 53 µM in data set [9]; 1900 nM with HL-60 [10]. In the data set on HSC-3 [11], the CC50 is 660 nM. For the same compound, the Activity entry in the data set on HL-60 [12] was “Dose-dependent effect”. In addition, the outcome with HSC-2 [13], in the data set with HSC-2 [15] and in the data set with HSC-4 [16] was inactive. In addition, the “Selectivity Index” value with HSC-3 [3] was 71; with HSC-4 [4], 36; in the data set on HSC-2 [7], 51; in the data set with HL-60 [8], 25. In addition, the outcome in the data set with HL-60 [14] was Active.

Take `COc1ccc(/C=C2\CN(P(=O)(O)O)C/C(=C\c3ccc(OC)c(OC)c3)C2=O)cc1OC`: the 50% cytotoxic concentration (CC50) was 400 nM with HSC-2 [1]; 1.3 µM in [2]; 420 nM in the data set with HSC-4 [5]; 2.5 µM in data set [6]; 2.6 µM in [9]; 260 nM in the data set on HL-60 [10]. For the same compound, in the data set with HSC-3 [11], the CC50 came out at 590 nM. In addition, the “Selectivity Index” value with HSC-3 [3] came out at 3.6; with HSC-4 [4], 5; with HSC-2 [7] it was 5.3; with HL-60 [8], 8.1.

In the case of `N[C@@H](Cc1ccc(N(CCCl)CCCl)cc1)C(=O)O` [MELPHALAN], the CC50 with HSC-2 [1] stood at 8700 nM; in data set [2], 269 µM; in the data set with HSC-4 [5], 32000 nM; in data set [6], 199 µM; in data set [9], 161 µM; with HL-60 [10], 1400 nM. In addition, the CC50 with HSC-3 [11] was 25000 nM. For the same compound, the “Selectivity Index” value in the data set on HSC-3 [3] is 8.4; in the data set with HSC-4 [4], 6.6; with HSC-2 [7], 24; in the data set on HL-60 [8], 150.

Take `O=C1/C(=C/c2ccccc2[N+](=O)[O-])CN(P(=O)(O)O)C/C1=C\c1ccccc1[N+](=O)[O-]`: the CC50 in the data set on HSC-2 [1] turned out to be 170 nM; in [2], 2.1 µM; in the data set on HSC-4 [5], 100 nM; in data set [6], 3 µM; in data set [9], 1.4 µM; in the data set on HL-60 [10], 70 nM. In the data set with HSC-3 [11], this compound had a CC50 of 320 nM. In addition, the “Selectivity Index” value is 6.9 with HSC-3 [3], 22 with HSC-4 [4], 13 in the data set with HSC-2 [7] and 30 with HL-60 [8].

Turning to `CCOP(=O)(OCC)N1C/C(=C\c2cc(OC)c(OC)c(OC)c2)C(=O)/C(=C/c2cc(OC)c(OC)c(OC)c2)C1`, the CC50 turned out to be 330 nM in the data set on HSC-2 [1]; 1.3 µM in data set [2]; 160 nM in the data set with HSC-4 [5]; 2.2 µM in data set [6]; 2 µM in data set [9]; 290 nM with HL-60 [10]. In the data set on HSC-3 [11], this compound had a CC50 of 430 nM. The “Selectivity Index” value is recorded as 4.2 with HSC-3 [3], 11 in the data set with HSC-4 [4], 5.5 in the data set with HSC-2 [7] and 6.2 in the data set on HL-60 [8].

Regarding `O=C1/C(=C/c2ccc(Cl)cc2)CN(P(=O)(O)O)C/C1=C\c1ccc(Cl)cc1`, the CC50 in the data set with HSC-2 [1] stood at 420 nM; in [2], 2.6 µM; in the data set on HSC-4 [5] it was 720 nM; in data set [6], 5.1 µM; in [9], 5.9 µM; with HL-60 [10], 460 nM. This compound also had a CC50 in the data set with HSC-3 [11] of 410 nM. In addition, the “Selectivity Index” value is 11 in the data set on HSC-3 [3], 6.3 in the data set on HSC-4 [4], 11 in the data set on HSC-2 [7] and 9.8 in the data set with HL-60 [8].

Take `CCOP(=O)(OCC)N1C/C(=C\c2ccc(OC)c(OC)c2)C(=O)/C(=C/c2ccc(OC)c(OC)c2)C1`: the CC50 in the data set with HSC-2 [1] is 1700 nM; in [2], 6.2 µM; in the data set with HSC-4 [5], 500 nM; in [6], 5.3 µM; in data set [9], 7.4 µM; in the data set with HL-60 [10], 750 nM. In the data set with HSC-3 [11], this compound returned a CC50 of 1400 nM. The “Selectivity Index” value in the data set on HSC-3 [3] stood at 4.5; in the data set on HSC-4 [4], 13; in the data set on HSC-2 [7], 3.7; with HL-60 [8] it was 8.4.

For `O=C1/C(=C/c2ccc([N+](=O)[O-])cc2)CN(P(=O)(O)O)C/C1=C\c1ccc([N+](=O)[O-])cc1`, the CC50 was 180 nM in the data set with HSC-2 [1]; 1.6 µM in [2]; 130 nM in the data set on HSC-4 [5]; 3.4 µM in [6]; 4.1 µM in [9]; 140 nM in the data set with HL-60 [10]. In the data set with HSC-3 [11], this compound yielded a CC50 of 230 nM. Besides, the “Selectivity Index” value in the data set on HSC-3 [3] is listed as 13; in the data set on HSC-4 [4], 23; with HSC-2 [7], 17; in the data set with HL-60 [8], 21.

As to `CCOP(=O)(OCC)N1C/C(=C\c2ccccc2)C(=O)/C(=C/c2ccccc2)C1`, the CC50 in the data set with HSC-2 [1] was 2400 nM; in [2], 6.5 µM; in the data set with HSC-4 [5], 1100 nM; in data set [6] it was 10 µM; in [9], 11 µM; in the data set on HL-60 [10], 610 nM. The same compound had a cytotoxic concentration (CC50) in the data set on HSC-3 [11] of 2500 nM. For the same compound, the “Selectivity Index” value was found to be 3.7 with HSC-3 [3], 8.4 in the data set with HSC-4 [4], 3.8 in the data set on HSC-2 [7] and 15 with HL-60 [8].
